The values that follow come from publication PMC12675575, “A BRET biosensor for measuring uncompetitive engagement of PRMT5 complexes in cells” (Nature Communications, 2025).

Where “and” joins values, the source holds several entries; their conditions need not be identical. Equal entries are not always repeated.

The experiment addresses T1, PRMT9 (Homo sapiens, UniProt Q6P2P2).
T1 construct: host or cells: HEK293
T1 sequence (Q6P2P2 1-845): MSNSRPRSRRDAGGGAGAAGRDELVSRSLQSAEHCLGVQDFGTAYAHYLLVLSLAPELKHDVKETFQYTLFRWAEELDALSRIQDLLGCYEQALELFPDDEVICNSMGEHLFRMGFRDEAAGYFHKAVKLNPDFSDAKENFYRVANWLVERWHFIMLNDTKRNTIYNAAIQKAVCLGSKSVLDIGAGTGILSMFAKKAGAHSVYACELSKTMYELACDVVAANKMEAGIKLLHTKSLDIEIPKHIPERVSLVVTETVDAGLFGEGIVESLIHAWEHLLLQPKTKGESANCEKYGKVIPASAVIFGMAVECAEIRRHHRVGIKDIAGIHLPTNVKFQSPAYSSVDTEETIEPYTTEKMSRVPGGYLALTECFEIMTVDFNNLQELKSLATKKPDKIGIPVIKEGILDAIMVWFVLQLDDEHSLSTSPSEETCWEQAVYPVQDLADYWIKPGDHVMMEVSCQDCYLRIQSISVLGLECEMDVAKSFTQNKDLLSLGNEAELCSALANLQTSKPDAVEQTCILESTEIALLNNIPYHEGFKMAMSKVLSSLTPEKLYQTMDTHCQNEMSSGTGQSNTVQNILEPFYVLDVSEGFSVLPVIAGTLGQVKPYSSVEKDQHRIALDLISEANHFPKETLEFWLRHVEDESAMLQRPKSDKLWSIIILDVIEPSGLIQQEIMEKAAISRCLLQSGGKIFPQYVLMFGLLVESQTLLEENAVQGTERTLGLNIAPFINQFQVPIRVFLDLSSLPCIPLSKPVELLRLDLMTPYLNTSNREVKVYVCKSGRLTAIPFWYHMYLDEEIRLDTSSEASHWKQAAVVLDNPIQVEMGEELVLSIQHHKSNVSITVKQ
Nature of the experiment: CBH-002 affinity curve, HEK293, PRMT9-NL fusion. In kind it is cell-based. Set-up: BRET, CBH-002 + DMSO / BRET, CBH-002 + GSK3326595: unit not given here. The conditions noted are these: for BRET, CBH-002 + DMSO / BRET, CBH-002 + GSK3326595: Figure S2D PRMT9-NL, log([CBH-002]). The protocol: HEK293 cells (ATCC) were cultured in DMEM (Thermo Fisher) + 10% (v/v) FBS (Seredigm), and HCT116 cells (Horizon Discovery, #PAR-034 and #R02-033) were cultured in McCoy’s 5A (Thermo Fisher) + 10% FBS, with incubation in a humidified, 37 °C/5% CO2 incubator. Cells were split 1–3 days prior to performing experiments and used at roughly 80% confluency. […] Cells were transfected according to the manufacturer’s protocol using FuGENE HD (Promega). NanoLuc fusion DNA was diluted into Transfection Carrier DNA (Promega) in Opti-MEM at a ratio of 1:9 (mass/mass), and FuGENE HD was added at a ratio of 1:3 (μg DNA:μL lipid). For experiments using WDR77, untagged WDR77 DNA (Promega) was used in place of Carrier DNA. Formed complexes were combined with cells resuspended to a density of 2 × 10^5 cells/mL in Opti-MEM + 1% FBS at a ratio of 1:20 (vol:vol). Cells were plated into a flask and incubated at 37 °C in a humidified 5% CO2 atmosphere for 18–24 h, before being lifted and seeded into 96-well non-binding surface-treated plates (Corning). Cells were seeded at a density of 2 × 10^5 cells/mL in Opti-MEM + 1% FBS in 100 μL (96-well). The BRET probe CBH-002 was prepared first as a 100× stock in 100% DMSO (Sigma) and then diluted to a 20× stock in NanoBRET Tracer Dilution buffer (Promega). Test compounds were prepared as 1000× stocks in 100% DMSO and diluted to 10× stocks in Opti-MEM to prepare working stocks. […] NanoBRET Complete 3x Substrate was prepared by combining Nano-Glo Substrate and Extracellular NanoLuc Inhibitor in Opti-MEM, according to the manufacturer’s protocol (Promega). NanoBRET Complete 3× Substrate was added to cells and plates were measured on either a PheraSTAR FSX equipped with 450 nm (donor) and 610 nm (acceptor) filters, or a GloMAX Discover equipped with 450/8 nm BP (donor) and 600 nm LP (acceptor) filters, using a 0.3 s integration time.
EC50 values were obtained by fitting the BRET probe and compound affinity curves to a sigmoidal four-parameter fit model in Graphpad Prism:1 Y=Ymin+Ymax−Ymin/1+10^LogEC50−Xh where h is the Hill Slope.

Turning to `O=C(CCc1ccc2n1[B-](F)(F)[N+]1=C(c3ccc[nH]3)C=CC1=C2)NCCCCC(=O)N1CCC(Nc2cc(C(=O)NC[C@H](O)CN3CCc4ccccc4C3)ncn2)CC1` [CBH-002], the “BRET, CBH-002 + DMSO” value was 3.434 and 3.347 and 3.1287 (uM 0.04576); 4.122 and 5.87 and 4.53 (uM 0.52288); 6.91 and 7.001 and 6.884 (uM 1); 2.433 and 2.903 and 2.863 (uM -0.43136); 2.344 and 2.202 and 2.303 (uM -0.90849); 1.839 and 2.321 and 2.413 (uM -1.20952). Further, the “BRET, CBH-002 + DMSO” value was 1.998 and 2.054 and 2.063 (uM -1.68664); 2.1788 and 2.218 and 2.268 (uM -1.98767); 1.888 and 2.124 and 2.713 (uM -2.94191). In addition, the “BRET, CBH-002 + GSK3326595” value is 3.008 and 3.39 and 2.997 (uM 0.04576); 5.212 and 4.497 and 4.8771 (uM 0.52288); 6.307 and 7.343 and 6.276 (uM 1); 2.897 and 2.374 and 2.8944 (uM -0.43136); 2.454 and 2.214 and 2.074 (uM -0.90849); 2.422 and 2.062 and 3.074 (uM -1.20952). Moreover, the “BRET, CBH-002 + GSK3326595” value (uM -1.68664) is 2.126 and 2.181 and 2.003; the “BRET, CBH-002 + GSK3326595” value (uM -1.98767) is 2.04 and 1.965 and 2.075; the “BRET, CBH-002 + GSK3326595” value (uM -2.46479) was 2.072 and 1.988 and 1.944; the “BRET, CBH-002 + GSK3326595” value (uM -2.94191) was 1.993 and 2.159 and 2.4012. Also, the “CBH-002 engagement at PRMT9” value (HEK293, PRMT9-NL) is “did not show engagement”.
